Experimental data from patent US20260048205A1, “SYSTEMS AND METHODS FOR MIXING SYRINGE VALVE ASSEMBLIES AND SYRINGE FORMULATIONS” (Tolmar International Limited, priority 2024, published 2026).

Key:
[1] = format: physicochemical
Description: To produce the drug/solvent bulk solution comprising the API (LA), the desired amount of the LA was combined with the solvent N-methyl-2-pyrrolidone (NMP), in the indicated amounts (see individual experiments below). The API and solvent were combined in a glass vial or jar. Jars were mixed using the jar mill, Turbula, or shaker at room temperature until homogeneous. LA is soluble in NMP and can load higher concentrations (at least 40% w/w). After dissolving the API in the organic solvent, the bulk solution was manually filled into syringes and capped with a tip cap. The syringes used for filling were either 1.2 mL male polypropylene syringes, 1.2 mL male cyclic olefin copolymer syringes or 1 mL male cyclic olefin copolymer syringes. In some instances, the two syringes were coupled via the connector prior to packaging. Filled syringes were then packaged in labeled foil pouches or a plastic tray pack with foil lid with a Syringe A (polymer-solvent solution) and a desiccant pack and the pouches were sealed. After filling the syringes with the formulations, they were terminally sterilized with an external radiation dose of more than 15 kGy and less than 60 kGy from irradiation processing (E-beam, Gamma or X-ray). After terminal sterilization, the syringes were stored under refrigerated conditions (e.g., 2-8° C.) or accelerated conditions (>25° C. see individual experiments).

LA gelation studies = format: physicochemical; settings: drug solution in NMP; e-beam irradiated; 60° C., 150 rpm, up to 16 days
Method: Drug solutions were prepared as described above and filled into syringes or glass vials. Syringes were untreated, contained various amounts of silicone, or were plasma coated for lubrication. Samples were irradiated by e-beam irradiation at not less than 25 kGy and stored at accelerated conditions of 60° C. with agitation at 150 rpm for up to 16 days. Samples were inspected periodically to determine if the drug solution remained a solution or had formed a solid/gel by an inversion test. Samples that had “gelled” were transferred to 5° C. for subsequent testing. The gelation rate for each sample was calculated as Rate=1/(simulated 5° C. age at time of gelation in days). The Arrhenius equation was used to determine the simulated age, assuming standard reaction rate doubling for every 10° C. increase in temperature. […] Data was analyzed using JMP. […] Container type and lubrication were not significant. Samples were tested for leuprolide content by HPLC. Leuprolide content was then converted to leuprolide acetate by multiplying by 1.078 (based on molecular mass ratios). A marked difference in leuprolide acetate content between the gelled and non-gelled samples was seen, with the tipping point between solution and solid/gelled samples occurring at about 45% LA.

CCNC(=O)[C@@H]1CCCN1C(=O)[C@H](CCCNC(=N)N)NC(=O)[C@H](CC(C)C)NC(=O)[C@@H](CC(C)C)NC(=O)[C@H](Cc1ccc(O)cc1)NC(=O)[C@H](CO)NC(=O)[C@H](Cc1c[nH]c2ccccc12)NC(=O)[C@H](Cc1c[nH]cn1)NC(=O)[C@@H]1CCC(=O)N1 [LA, leuprolide acetate]
solubility / loading in NMP [1]: at least 40 % w/w
tipping point between solution and solid/gelled samples (LA gelation studies): about 45 % LA
